Here are results for two molecules from ChEMBL document CHEMBL2086334, “Fluorogenic assay of alkaline phosphatase activity based on the modulation of excited-state intramolecular proton transfer” (Bioorg Med Chem Lett, 2012).

Experiment [1] in a line: Activity of alkaline phosphatase assessed as compound hydrolysis at 20 uM at 0.1 to 50 nM enzyme concentration measured every 1 min for 10 mins by fluorescence spectrophotometry.
Experiment [2] is described as follows: Activity of alkaline phosphatase assessed as compound hydrolysis assessed as increase in fluorescence intensity measured every 30 secs for 10 mins by Lineweaver-Burk plot analysis.
Experiment [3] can be described thus: Activity of alkaline phosphatase assessed as compound hydrolysis at 20 uM assessed as increase in fluorescence intensity every 1 min for 10 mins by fluorescence spectrophotometry relative to control.
A short description of experiment [4]: Activity of levamisole-pretreated alkaline phosphatase assessed as compound hydrolysis at 20 uM measured every 0.5 mins for 10 mins by fluorescence spectrophotometry.
A short description of experiment [5]: Inhibition of alkaline phosphatase.

Activity calls are given as the source filed them. The calls are words filed in the database; no cut-off is given here.

For `O=P(O)(O)Oc1ccccc1-c1nc(-c2ccccc2)cs1`, the outcome in experiment [1] was Active. In addition, in experiment [2], the Km (commonly the concentration of substrate that gives half-maximal velocity) was 1.9 µM; the turnover number (kcat) – broadly, the number of substrate molecules converted per active site and unit of time at saturation – amounted to 0.09 s⁻¹. In addition, the fold change (FC) in experiment [3] is 455. In addition, the outcome in experiment [4] was inactive.

`c1ccc([C@H]2CN3CCSC3=N2)cc1` [LEVAMISOLE]: in experiment [5], it took 13.3 µM to reach half-maximal inhibition (IC50).
